Several values for one entry are separate records, joined by “and”; a condition that tells them apart may be missing. Identical values can stand only once. Inconclusive results and toxic doses are left out. Rule as the data show it: active = T/C of 150% or more; inactive = T/C below 125%.
Tested on: L1210 leukemia ip in BDF1 mice, survival T/C
Assay: NCI In Vivo Anticancer Drug Screen. Data for tumor model L1210 Leukemia (intraperitoneal) in B6D2F1 (BDF1) mice
Conditions: endpoint: mean survival time, higher = longer survival
Method in brief: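 Transplanted-tumor mice were given test agent; controls received vehicle only. Survival readings from the two groups were divided (treated over control).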

[1] = dose: 100.0 mg/kg/injection, schedule: Q01DX009 (ip), vehicle: Klucel (hydroxypropylcellulose) (HPC)
[2] = dose: 200.0 mg/kg/injection, schedule: Q01DX009 (ip), vehicle: Klucel (hydroxypropylcellulose) (HPC)
[3] = dose: 400.0 mg/kg/injection, schedule: Q01DX009 (ip), vehicle: Klucel (hydroxypropylcellulose) (HPC)
[4] = dose: 100.0 mg/kg/injection, schedule: Q01DX009 (ip), vehicle: saline
[5] = dose: 200.0 mg/kg/injection, schedule: Q01DX009 (ip), vehicle: saline
[6] = dose: 100.0 mg/kg/injection, schedule: Q04DX002 (ip), vehicle: Klucel (hydroxypropylcellulose) (HPC)
[7] = dose: 200.0 mg/kg/injection, schedule: Q04DX002 (ip), vehicle: Klucel (hydroxypropylcellulose) (HPC)
[8] = dose: 400.0 mg/kg/injection, schedule: Q04DX002 (ip), vehicle: Klucel (hydroxypropylcellulose) (HPC)

Measured: T/C

CCN(CC)S(=O)(=O)c1ccc(OC)c(N)c1
inactive: [1] 98 % of control | dose: 100.0 mg/kg/injection, schedule: Q04DX003 (ip), vehicle: other 96 % of control | [2] 96 % of control | dose: 200.0 mg/kg/injection, schedule: Q04DX003 (ip), vehicle: other 104 % of control | [3] 104 % of control | dose: 400.0 mg/kg/injection, schedule: Q04DX003 (ip), vehicle: other 100 % of control

CCOC(=O)c1ccc(NC(=O)Oc2ccc(C(=O)OC)cc2)cc1
inactive: [1] 102 % of control | [2] 95 % of control | [3] 100 % of control

Cc1ccc([N+](=O)[O-])cc1S(=O)(=O)O
inactive: [4] 95 % of control | dose: 100.0 mg/kg/injection, schedule: Q04DX003 (ip), vehicle: saline 102 % of control | [5] 102 % of control | dose: 200.0 mg/kg/injection, schedule: Q04DX003 (ip), vehicle: saline 102 % of control | dose: 400.0 mg/kg/injection, schedule: Q01DX009 (ip), vehicle: saline 98 % of control | dose: 400.0 mg/kg/injection, schedule: Q04DX003 (ip), vehicle: saline 96 % of control

CC(C)=NNC(=O)Nc1ccc(C)c(Cl)c1
inactive: dose: 50.0 mg/kg/injection, schedule: Q01DX001 (ip), vehicle: Klucel (hydroxypropylcellulose) (HPC) 90 % of control | dose: 100.0 mg/kg/injection, schedule: Q01DX001 (ip), vehicle: Klucel (hydroxypropylcellulose) (HPC) 103 % of control and 90 % of control | [1] 102 % of control | [6] 101 % of control and 86 % of control | dose: 200.0 mg/kg/injection, schedule: Q01DX001 (ip), vehicle: Klucel (hydroxypropylcellulose) (HPC) 92 % of control | [2] 93 % of control | [7] 98 % of control and 100 % of control | dose: 400.0 mg/kg/injection, schedule: Q01DX001 (ip), vehicle: Klucel (hydroxypropylcellulose) (HPC) 87 % of control | [3] 86 % of control | [8] 95 % of control and 89 % of control

Cc1ccc(S(=O)(=O)Cc2ccccc2)cc1
inactive: dose: 50.0 mg/kg/injection, schedule: Q01DX001 (ip), vehicle: carboxymethylcellulose (CMC) 103 % of control | dose: 50.0 mg/kg/injection, schedule: Q01DX009 (ip), vehicle: saline 103 % of control | dose: 100.0 mg/kg/injection, schedule: Q01DX001 (ip), vehicle: carboxymethylcellulose (CMC) 103 % of control | [4] 99 % of control | [6] 100 % of control | dose: 200.0 mg/kg/injection, schedule: Q01DX001 (ip), vehicle: carboxymethylcellulose (CMC) 103 % of control | [5] 94 % of control | [7] 106 % of control | dose: 400.0 mg/kg/injection, schedule: Q01DX001 (ip), vehicle: carboxymethylcellulose (CMC) 97 % of control | [8] 95 % of control

CCCCSc1ncnc2c1ncn2C1CCCCO1 (stereo not given)
inactive: dose: 50.0 mg/kg/injection, schedule: Q01DX001 (ip), vehicle: saline 102 % of control | dose: 100.0 mg/kg/injection, schedule: Q01DX001 (ip), vehicle: saline 104 % of control | dose: 100.0 mg/kg/injection, schedule: Q01DX009 (ip), vehicle: saline sonified 94 % of control | dose: 100.0 mg/kg/injection, schedule: Q04DX003 (ip), vehicle: Klucel (hydroxypropylcellulose) (HPC) 103 % of control | dose: 200.0 mg/kg/injection, schedule: Q01DX001 (ip), vehicle: saline 102 % of control | dose: 200.0 mg/kg/injection, schedule: Q01DX009 (ip), vehicle: saline sonified 90 % of control | dose: 200.0 mg/kg/injection, schedule: Q04DX003 (ip), vehicle: Klucel (hydroxypropylcellulose) (HPC) 113 % of control | dose: 400.0 mg/kg/injection, schedule: Q01DX001 (ip), vehicle: saline 113 % of control | dose: 400.0 mg/kg/injection, schedule: Q01DX009 (ip), vehicle: saline sonified 113 % of control | dose: 400.0 mg/kg/injection, schedule: Q04DX003 (ip), vehicle: Klucel (hydroxypropylcellulose) (HPC) 124 % of control
